# Measured values reported in patent publication US20230047788A1, “COMPOSITIONS COMPRISING 5-CHOLESTEN-3, 25-DIOL, 3-SULFATE (25HC3S) OR PHARMACEUTICALLY ACCEPTABLE SALT THEREOF AND AT LEAST ONE CYCLIC OLIGOSACCHARIDE” (Virginia Commonwealth University, priority 2016, published 2023).
# Values joined by “and” are separate entries in the source; they are usually repeats but may differ in a detail not shown here. Identical values can stand only once.
# Test: Infusion compatibility of constituted 25HC3S solution with 5% dextrose, 0.9% sodium chloride and two infusion sets
# Assay type: physicochemical
# Conditions: for Osmolality / pH / % Remaining Compared to T = 0 / Concentration / T = 0 Conc.: 5% dextrose bag
# Protocol: After constitution with Vehicle, the 30 mg/mL 25HC3S product was diluted into 100 mL of 5% dextrose injection, USP or 0.9% sodium chloride injection, USP, and was administered to subjects as an IV infusion ranging from a 30 mg to 150 mg 25HC3S dose. This was accomplished by adding 1.0 mL (for the 30 mg dose) or 5.0 mL (for the 150 mg dose), or any volume in between, of the 30 mg/mL 25HC3S product into a 100 mL dextrose or sodium chloride infusion bag. The entire admixture content in the infusion bag was infused into the subject over approximately 2 hours at a rate of 50 mL/hour.
# A physical and chemical compatibility study was conducted at a 30 mg, 48 mg and 300 mg 25HC3S dose in 5% dextrose and 0.9% sodium chloride infusion bags. Descriptions of the two kinds of infusion sets tested with 25HC3S product diluted in 5% dextrose and 0.9% sodium chloride are listed in Table 15. The tubing in catalog number 2H8480 infusion set was composed of polyvinylchloride (PVC), while the tubing in catalog number 2C8858 was polyethylene lined except for a short pump segment (approximately 12 inches) which was composed of PVC.
# 25HC3S for Injection and Vehicle for 25HC3S for Injection, that had been stored at 2-8° C. for approximately 16 months, were used for the compatibility study. After constitution, 30 mg (1.0 mL of constituted product), 48 mg (1.6 mL of constituted product) or 300 mg (10 mL of constituted product) were added to 100 mL infusion bags of 5% dextrose and 0.9% sodium chloride, mixed thoroughly, and stored for 24 hours at room temperature and at 2-8° C. […] Taking into consideration the overfill per infusion bag and the additional volume introduced by adding the constituted 25HC3S product to each bag, the expected concentrations of 25HC3S were 0.28 mg/mL, 0.44 mg/mL, and 2.56 mg/mL in the infusion bags. Two kinds of infusion sets were then attached to the drug containing infusion bags, and the entire contents were eluted through the infusion sets at approximately 50 mL/hour at room temperature. Samples were collected from the 25HC3S prepared infusion bags at T=0 and at 24 hours, and from the total eluent passed through the infusion sets, and tested for 25HC3S concentration using HPLC. Solution visual appearance, osmolality (using method USP<785>), and pH (using method USP<791>) were also measured on the collected samples.
# [1] = 5% dextrose, ~0.28 mg/mL, 24 h 2-8°C then Baxter 2C8858
# [2] = 5% dextrose, ~0.28 mg/mL, 24 h 2-8°C then Baxter 2H8480
# [3] = 5% dextrose, ~0.28 mg/mL, 24 h RT then Baxter 2C8858
# [4] = 5% dextrose, ~0.28 mg/mL, 24 h RT then Baxter 2H8480
# [5] = 5% dextrose, ~0.44 mg/mL, 24 h 2-8°C then Baxter 2C8858
# [6] = 5% dextrose, ~0.44 mg/mL, 24 h 2-8°C then Baxter 2H8480
# [7] = 5% dextrose, ~0.44 mg/mL, 24 h RT then Baxter 2C8858
# [8] = 5% dextrose, ~0.44 mg/mL, 24 h RT then Baxter 2H8480
# [9] = 5% dextrose, ~2.56 mg/mL, 24 h 2-8°C then Baxter 2C8858
# [10] = 5% dextrose, ~2.56 mg/mL, 24 h 2-8°C then Baxter 2H8480
# [11] = 5% dextrose, ~2.56 mg/mL, 24 h RT then Baxter 2C8858
# [12] = 5% dextrose, ~2.56 mg/mL, 24 h RT then Baxter 2H8480
smiles,measurement,setting,value
"C[C@H](CCCC(C)(C)O)[C@H]1CC[C@H]2[C@@H]3CC=C4C[C@@H](OS(=O)(=O)[O-])CC[C@]4(C)[C@H]3CC[C@]12C.[Na+] [25HC3S, 5-cholesten-3, 25-diol, 3-sulfate]",Osmolality,"~0.28 mg/mL, 24 Hours at 2-8°C",250 mmol/kg and 253 mmol/kg
same,pH,"~0.28 mg/mL, 24 Hours at 2-8°C",7.09 and 7.04
same,% Remaining Compared to T = 0,"~0.28 mg/mL, 24 Hours at RT",(100.0%)
same,Concentration,"~0.28 mg/mL, 24 Hours at RT",276 µg/mL and 277 µg/mL
same,Osmolality,"~0.28 mg/mL, 24 Hours at RT",252 mmol/kg and 249 mmol/kg
same,pH,"~0.28 mg/mL, 24 Hours at RT",7.12 and 7.05
same,Osmolality,"~0.28 mg/mL, T = 0",247 mmol/kg and 250 mmol/kg and 251 mmol/kg
same,T = 0 Conc.,"~0.28 mg/mL, T = 0",0.276 mg/mL and 0.277 mg/mL and 0.280 mg/mL and 0.279 mg/mL
same,pH,"~0.28 mg/mL, T = 0",7.09 and 7.03 and 7.10 and 7.04
same,Concentration,"~0.44 mg/mL, 24 Hours at 2-8°C",438 µg/mL and 440 µg/mL
same,Osmolality,"~0.44 mg/mL, 24 Hours at 2-8°C",254 mmol/kg and 257 mmol/kg
same,pH,"~0.44 mg/mL, 24 Hours at 2-8°C",6.96 and 6.93
same,% Remaining Compared to T = 0,"~0.44 mg/mL, 24 Hours at RT",(100.0%)
same,Concentration,"~0.44 mg/mL, 24 Hours at RT",447 µg/mL and 442 µg/mL
same,Osmolality,"~0.44 mg/mL, 24 Hours at RT",256 mmol/kg and 253 mmol/kg
same,pH,"~0.44 mg/mL, 24 Hours at RT",6.91 and 6.90
same,Osmolality,"~0.44 mg/mL, T = 0",255 mmol/kg and 254 mmol/kg and 256 mmol/kg
same,T = 0 Conc.,"~0.44 mg/mL, T = 0",0.447 mg/mL and 0.442 mg/mL and 0.439 mg/mL
same,pH,"~0.44 mg/mL, T = 0",6.83 and 6.81 and 6.82 and 6.88
same,Concentration,"~2.56 mg/mL, 24 Hours at 2-8°C",2550 µg/mL and 2530 µg/mL
same,Osmolality,"~2.56 mg/mL, 24 Hours at 2-8°C",246 mmol/kg and 251 mmol/kg
same,pH,"~2.56 mg/mL, 24 Hours at 2-8°C",6.11 and 6.14
same,Concentration,"~2.56 mg/mL, 24 Hours at RT",2470 µg/mL and 2520 µg/mL
same,Osmolality,"~2.56 mg/mL, 24 Hours at RT",257 mmol/kg and 250 mmol/kg
same,pH,"~2.56 mg/mL, 24 Hours at RT",6.12 and 6.06
same,Osmolality,"~2.56 mg/mL, T = 0",258 mmol/kg and 247 mmol/kg
same,T = 0 Conc.,"~2.56 mg/mL, T = 0",2.500 mg/mL and 2.510 mg/mL and 2.530 mg/mL and 2.525 mg/mL
same,pH,"~2.56 mg/mL, T = 0",6.04 and 6.12 and 6.29 and 6.26
same,deviation of concentrations from initial T=0 time point,"5% dextrose, 24 hours at RT and 2-8°C and after elution through infusion sets",≤ 1.4%
same,% Remaining after infusion set,[1],(100.4%)
same,Concentration after infusion set,[1],280 µg/mL
same,Osmolality after infusion set,[1],252 mmol/kg
same,pH after infusion set,[1],6.99
same,% Remaining after infusion set,[2],(100.0%)
same,Concentration after infusion set,[2],280 µg/mL
same,Osmolality after infusion set,[2],251 mmol/kg
same,pH after infusion set,[2],6.95
same,% Remaining after infusion set,[3],(100.0%)
same,Concentration after infusion set,[3],277 µg/mL
same,Osmolality after infusion set,[3],252 mmol/kg
same,pH after infusion set,[3],7.04
same,% Remaining after infusion set,[4],(100.0%)
same,Concentration after infusion set,[4],276 µg/mL
same,Osmolality after infusion set,[4],252 mmol/kg
same,pH after infusion set,[4],6.99
same,% Remaining after infusion set,[5],(100.2%)
same,Concentration after infusion set,[5],440 µg/mL
same,Osmolality after infusion set,[5],255 mmol/kg
same,pH after infusion set,[5],6.93
same,% Remaining after infusion set,[6],(100.2%)
same,Concentration after infusion set,[6],440 µg/mL
same,Osmolality after infusion set,[6],257 mmol/kg
same,pH after infusion set,[6],6.91
same,% Remaining after infusion set,[7],(100.0%)
same,Concentration after infusion set,[7],442 µg/mL
same,Osmolality after infusion set,[7],253 mmol/kg
same,pH after infusion set,[7],6.90
same,% Remaining after infusion set,[8],(100.2%)
same,Concentration after infusion set,[8],448 µg/mL
same,Osmolality after infusion set,[8],253 mmol/kg
same,pH after infusion set,[8],6.91
same,% Remaining after infusion set,[9],(100.4%)
same,Concentration after infusion set,[9],2535 µg/mL
same,Osmolality after infusion set,[9],248 mmol/kg
same,pH after infusion set,[9],6.10
same,% Remaining after infusion set,[10],(100.4%)
same,Concentration after infusion set,[10],2540 µg/mL
same,Osmolality after infusion set,[10],247 mmol/kg
same,pH after infusion set,[10],5.99
same,% Remaining after infusion set,[11],(101.4%)
same,Concentration after infusion set,[11],2545 µg/mL
same,Osmolality after infusion set,[11],251 mmol/kg
same,pH after infusion set,[11],6.00
same,% Remaining after infusion set,[12],(99.2%)
same,Concentration after infusion set,[12],2480 µg/mL
same,Osmolality after infusion set,[12],261 mmol/kg
same,pH after infusion set,[12],6.01
same,solution appearance,"dextrose and sodium chloride, all three concentrations, after 24 hours in bags and after elution",clear and colorless solutions
same,decrease of pH over 24 hours in the infusion bags,"sodium chloride, approximately 0.28 mg/mL 25HC3S",~0.5 pH unit
